One assay addresses T1, human GLP-1 R (Homo sapiens, UniProt P43220).
T1 construct: expressed in transfected cells
Kind of assay: Human GLP-1 receptor efficacy assay (cAMP induction, FlashPlate). In kind it is cell-based. To be noted: read-out: hGLP-1 R EC50. As to the method: On the day of analysis, growth medium was removed and the cells were washed once with 200 μl Tyrode buffer [Tyrode's Salts (9.6 g/l), 10 mM HEPES, pH 7.4]. […] The reaction was stopped by addition of 25 μl 0.5 M HCl and incubated on ice for 60 min.

The next assay deals with T2, human CCK-B R (Homo sapiens, UniProt P32239).
T2 construct: expressed in transfected cells
T2 sequence (P32239 1-447): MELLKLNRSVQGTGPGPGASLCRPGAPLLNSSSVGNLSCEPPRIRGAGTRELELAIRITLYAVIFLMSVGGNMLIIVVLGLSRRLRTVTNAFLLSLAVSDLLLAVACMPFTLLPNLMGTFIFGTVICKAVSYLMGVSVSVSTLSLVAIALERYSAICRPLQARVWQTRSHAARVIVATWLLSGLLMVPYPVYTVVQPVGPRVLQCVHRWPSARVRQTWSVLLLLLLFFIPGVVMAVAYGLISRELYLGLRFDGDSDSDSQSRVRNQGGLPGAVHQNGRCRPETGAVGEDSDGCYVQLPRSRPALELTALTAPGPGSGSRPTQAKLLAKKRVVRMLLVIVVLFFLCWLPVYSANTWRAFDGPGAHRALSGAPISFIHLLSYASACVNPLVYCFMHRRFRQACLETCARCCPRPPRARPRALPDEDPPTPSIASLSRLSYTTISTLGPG
Kind of assay: Human CCK-B receptor efficacy assay (AlphaScreen SureFire p-ERK). Format: cell-based. To be noted: read-out: hCCK-B R EC50.

pEC50: −log10 of the molar value. Read-outs that look alike come from different tables or passages of the source. Numbered stars: 1 amine (or outer) side, 2 acyl side, 3 side chain; on linkers, the order of the positions; unused ones are H or OH. Square brackets hold non-standard residues; d marks the D form. Side chains are listed from the residue outwards. Peptide text beside a SMILES is read from it. * marks the point of attachment. γGlu = O=C(O)[C@H](CCC(=O)[*:2])N[*:1]; Palmitoyl = CCCCCCCCCCCCCCCC(=O)*; Orn = NCCC[C@H](N)C(=O)O; AEEA = NCCOCCOCC(=O)O

T1 sequence (P43220 24-463): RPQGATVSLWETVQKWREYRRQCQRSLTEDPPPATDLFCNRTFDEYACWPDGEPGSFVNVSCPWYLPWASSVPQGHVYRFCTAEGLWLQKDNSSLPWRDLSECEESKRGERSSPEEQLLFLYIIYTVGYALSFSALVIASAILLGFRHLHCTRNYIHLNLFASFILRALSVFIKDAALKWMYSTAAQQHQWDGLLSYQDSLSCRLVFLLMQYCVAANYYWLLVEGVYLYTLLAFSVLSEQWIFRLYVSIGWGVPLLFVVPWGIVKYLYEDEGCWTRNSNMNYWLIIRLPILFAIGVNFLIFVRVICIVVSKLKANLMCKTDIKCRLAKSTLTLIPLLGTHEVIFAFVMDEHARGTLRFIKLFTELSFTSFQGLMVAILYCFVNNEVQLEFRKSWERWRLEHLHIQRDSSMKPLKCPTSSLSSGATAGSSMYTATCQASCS
Protocol for human CCK-B R: CCK-B Receptor (CCK-B R) Efficacy Assay:
In vitro effects of peptide conjugates of the invention were estimated by measuring p-ERK (using the AlphaScreen™ SureFire p-ERK assay) in HEK293 cells stably expressing the human and mouse CCK-B R (high-affinity Gastrin receptor), respectively. The Gastrin receptor efficacy assays (AlphaScreen™ SureFire p-ERK assay) were performed as follows:
The CCK-B R expressing cells in question were seeded at 20,000 cells/well in 100 μl growth medium [DMEM, 10% FCS, Penicillin (100 IU/ml), Streptomycin (100 μg/ml)] in a 96-well plate coated with poly-D-lysine. The cells were incubated in an incubator (37° C., 5% 002) for two days.
The growth medium was changed to 80 μl of serum-free medium [DMEM, Penicillin (100 IU/ml), Streptomycin (100 μg/ml)] per well, and incubation of the cells was continued for 19 hours in the incubator (37° C., 5% CO2).
After 19 hours, 20 μl of serum-free medium containing one of 5 different concentrations of peptide conjugate was added (performed in triplicate for each concentration), and the cells were incubated for 5 min. at room temperature. • 2. The stimulation medium was discarded by quickly turning the plate upside down, and 60 μl 1× lysis buffer (from the SureFire assay kit) was added per well. • 3. The plate was shaken on a plate-shaker for 5 min and then placed on ice. • 4. SureFire P-ERK assay: 4 μl of each supernatant was transferred to a 384 well proxiplate (Perkin Elmer). • 5. 4 μl of each of the two control lysates (unstimulated and stimulated) were added to the proxiplate in duplicate. • 6. […] 7 μl of the latter reaction buffer+activation buffer+beads per well were added in the proxiplate, the mix being resuspended carefully before addition to the wells. • 7. The plate was incubated for 2 hours in a dark box in a 22° C. incubator. • 8. The plate was analyzed on an Envision™ light-emission plate reader (Perkin-Elmer) using the appropriate reading program (Perkin-Elmer).

For orientation: pEC50 means −log10 of the EC50, conventionally taken in molar units. With `CC[C@H](C)[C@H](NC(=O)[C@H](Cc1ccccc1)NC(=O)[C@H](CC(C)C)NC(=O)[C@H](CCCCN)NC(=O)[C@@H](NC(=O)[C@H](C)NC(=O)[C@H](CCC(=O)O)NC(=O)[C@H](CCC(=O)O)NC(=O)[C@H](CCC(=O)O)NC(=O)[C@H](CC(C)C)NC(=O)[C@H](Cc1ccc(O)cc1)NC(=O)[C@H](CCCNC(=N)N)NC(=O)[C@H](CO)NC(=O)[C@H](CC(C)C)NC(=O)[C@H](CC(=O)O)NC(=O)[C@H](CO)NC(=O)[C@@H](NC(=O)[C@H](Cc1ccccc1)NC(=O)[C@@H](NC(=O)CNC(=O)[C@H](CCC(=O)O)NC(=O)CNC(=O)[C@@H](N)Cc1c[nH]cn1)[C@@H](C)O)[C@@H](C)O)C(C)C)C(=O)N[C@@H](CCC(=O)O)C(=O)N[C@@H](Cc1ccccc1)C(=O)N[C@@H](CC(C)C)C(=O)N[C@@H](CCCNC(=N)N)C(=O)NCCOCCOCC(=O)N[C@@H](Cc1ccc(O)cc1)C(=O)NCC(=O)N[C@@H](Cc1c[nH]c2ccccc12)C(=O)N[C@@H](CC(C)C)C(=O)N[C@@H](CC(=O)O)C(=O)N[C@@H](Cc1ccccc1)C(N)=O` [Compound 93, [Arg12,27,Leu14,Lys20,Phe25,Tyr13]Exendin-4(1-27)-Peg3-[Leu4]Gastrin6] (H-HGEGTFTSDLSRYLEEEAVKLFIEFLR[AEEA]YGWLDF-NH2), the pEC50 on human GLP-1 R (Table 2) was 10.24; at human CCK-B R (Table 2), 7.59.

Regarding `CCCCCCCCCCCCCCCC(=O)N[C@@H](CCC(=O)NCCCC[C@H](NC(=O)CNC(=O)[C@H](CCCNC(=N)N)NC(=O)[C@@H](NC(=O)[C@H](CC(C)C)NC(=O)[C@H](Cc1c[nH]c2ccccc12)NC(=O)[C@H](C)NC(=O)[C@@H](NC(=O)[C@H](Cc1ccccc1)NC(=O)[C@H](CCC(=O)O)NC(=O)[C@H](CCCNC(=N)N)NC(=O)[C@H](C)NC(=O)[C@H](C)NC(=O)[C@H](CCC(N)=O)NC(=O)CNC(=O)[C@H](CCC(=O)O)NC(=O)[C@H](CC(C)C)NC(=O)[C@H](Cc1ccc(O)cc1)NC(=O)[C@H](CO)NC(=O)[C@H](CO)NC(=O)[C@@H](NC(=O)[C@H](CC(=O)O)NC(=O)[C@H](CO)NC(=O)[C@@H](NC(=O)[C@H](Cc1ccccc1)NC(=O)[C@@H](NC(=O)CNC(=O)[C@H](CCC(=O)O)NC(=O)[C@H](C)NC(=O)[C@@H](N)Cc1c[nH]cn1)[C@@H](C)O)[C@@H](C)O)C(C)C)[C@@H](C)CC)C(C)C)C(=O)NCC(=O)NCCOCCOCC(=O)NCCOCCOCC(=O)N[C@@H](Cc1ccc(O)cc1)C(=O)NCC(=O)N[C@@H](Cc1c[nH]c2ccccc12)C(=O)N[C@@H](CC(C)C)C(=O)N[C@@H](CC(=O)O)C(=O)N[C@@H](Cc1ccccc1)C(N)=O)C(=O)O` [Compound 108, [Arg26,34,Lys(Hexadecanoyl-isoGlu)36]GLP-1(7-37)-Peg3-Peg3-[Leu4]Gastrin6] (H-HAEGTFTSDVSSYLEGQAAREFIAWLVRGK([γGlu-Palmitoyl])G[AEEA][AEEA]YGWLDF-NH2), the figures for the pEC50 at human GLP-1 R (Table 3) and on human CCK-B R (Table 3) were 9.96 and 7.11, respectively.

Consider `CC[C@H](C)[C@H](NC(=O)[C@H](Cc1ccccc1)NC(=O)[C@H](CC(C)C)NC(=O)[C@H](CCCNC(=N)N)NC(=O)[C@@H](NC(=O)[C@H](C)NC(=O)[C@H](CCC(=O)O)NC(=O)[C@H](CCC(=O)O)NC(=O)[C@H](CCC(=O)O)NC(=O)[C@H](CC(C)C)NC(=O)[C@H](Cc1ccc(O)cc1)NC(=O)[C@H](CCCCN)NC(=O)[C@H](CO)NC(=O)[C@H](CC(C)C)NC(=O)[C@H](CCC(=O)O)NC(=O)[C@H](CO)NC(=O)[C@@H](NC(=O)[C@H](Cc1ccccc1)NC(=O)[C@@H](NC(=O)CNC(=O)[C@H](CCC(=O)O)NC(=O)CNC(=O)[C@@H](N)Cc1c[nH]cn1)[C@@H](C)O)[C@@H](C)O)C(C)C)C(=O)N[C@@H](CCC(=O)O)C(=O)N[C@@H](Cc1ccccc1)C(=O)N[C@@H](CC(C)C)C(=O)N[C@@H](CCCCN)C(=O)NCCOCCOCC(=O)N[C@@H](Cc1c[nH]c2ccccc12)C(=O)N[C@@H](CC(C)C)C(=O)N[C@@H](CC(=O)O)C(=O)N[C@@H](Cc1ccccc1)C(N)=O` [Compound 97, [Glu9,Leu14,Phe25,Tyr13]Exendin-4(1-27)-Peg3-[Leu2]Gastrin4] (H-HGEGTFTSELSKYLEEEAVRLFIEFLK[AEEA]WLDF-NH2), for which the pEC50 at human GLP-1 R (Table 2) was 10.22; at human CCK-B R (Table 2), 7.89.

As for “H-HGEGTFTSELSKYLEEEAVRLFIEFLKWLDF-NH2 [Compound 96, [Glu9,Leu14,Phe25,Tyr13]Exendin-4(1-27)-[Leu2]Gastrin4]”, the figures for the pEC50 at human GLP-1 R (Table 2) and at human CCK-B R (Table 2) were 8.92 and 6.68, respectively.

On to `CCCCCCCCCCCCCCCC(=O)N[C@@H](CCC(=O)NCCCC[C@H](NC(=O)[C@H](C)NC(=O)[C@H](C)NC(=O)[C@H](CCC(N)=O)NC(=O)CNC(=O)[C@H](CCC(=O)O)NC(=O)[C@H](CC(C)C)NC(=O)[C@H](Cc1ccc(O)cc1)NC(=O)[C@H](CO)NC(=O)[C@H](CO)NC(=O)[C@@H](NC(=O)[C@H](CC(=O)O)NC(=O)[C@H](CO)NC(=O)[C@@H](NC(=O)[C@H](Cc1ccccc1)NC(=O)[C@@H](NC(=O)CNC(=O)[C@H](CCC(=O)O)NC(=O)C(C)(C)NC(=O)[C@@H](N)Cc1c[nH]cn1)[C@@H](C)O)[C@@H](C)O)C(C)C)C(=O)N[C@@H](CCC(=O)O)C(=O)N[C@@H](Cc1ccccc1)C(=O)N[C@H](C(=O)N[C@@H](C)C(=O)N[C@@H](Cc1c[nH]c2ccccc12)C(=O)N[C@@H](CC(C)C)C(=O)N[C@H](C(=O)N[C@@H](CCCNC(=N)N)C(=O)NCC(=O)N[C@@H](CCCNC(=N)N)C(=O)NCC(=O)NCCOCCOCC(=O)NCCOCCOCC(=O)N[C@@H](Cc1ccc(O)cc1)C(=O)NCC(=O)N[C@@H](Cc1c[nH]c2ccccc12)C(=O)N[C@@H](CC(C)C)C(=O)N[C@@H](CC(=O)O)C(=O)N[C@@H](Cc1ccccc1)C(N)=O)C(C)C)[C@@H](C)CC)C(=O)O` [Compound 111, [Aib8,Arg34,Lys(Hexadecanoyl-isoGlu)26]GLP-1(7-37)-Peg3-Peg3-[Leu4]Gastrin6], for which the pEC50 was 10.06 at human GLP-1 R (Table 3) and 7.23 at human CCK-B R (Table 3).

`CC[C@H](C)[C@H](NC(=O)[C@H](Cc1ccccc1)NC(=O)[C@H](CC(C)C)NC(=O)[C@H](CCCNC(=N)N)NC(=O)[C@@H](NC(=O)[C@H](C)NC(=O)[C@H](CCC(=O)O)NC(=O)[C@H](CCC(=O)O)NC(=O)[C@H](CCC(=O)O)NC(=O)[C@H](CC(C)C)NC(=O)[C@H](Cc1ccc(O)cc1)NC(=O)[C@H](CCCCN)NC(=O)[C@H](CO)NC(=O)[C@H](CC(C)C)NC(=O)[C@H](CCC(=O)O)NC(=O)[C@H](CO)NC(=O)[C@@H](NC(=O)[C@H](Cc1ccccc1)NC(=O)[C@@H](NC(=O)CNC(=O)[C@H](CCC(=O)O)NC(=O)CNC(=O)[C@@H](N)Cc1c[nH]cn1)[C@@H](C)O)[C@@H](C)O)C(C)C)C(=O)N[C@@H](CCC(=O)O)C(=O)N[C@@H](Cc1ccccc1)C(=O)N[C@@H](CC(C)C)C(=O)N[C@@H](CCCCN)C(=O)N[C@@H](CCCN)C(=O)NCCOCCOCC(=O)N[C@@H](Cc1c[nH]c2ccccc12)C(=O)N[C@@H](CC(C)C)C(=O)N[C@@H](CC(=O)O)C(=O)N[C@@H](Cc1ccccc1)C(N)=O` [Compound 98, [Glu9,Leu14,Phe25,Tyr13]Exendin-4(1-27)-Orn-Peg3-[Leu2]Gastrin4] (H-HGEGTFTSELSKYLEEEAVRLFIEFLK[Orn][AEEA]WLDF-NH2): the pEC50 on human GLP-1 R (Table 2) was 10.34; at human CCK-B R (Table 2) it was 8.00.

These data come from patent US10406207B2, “Peptide conjugates of GLP-1 receptor agonists and gastrin and their use” (priority 2010, dated 2019).
